According to patent US20260027067A1, “TRIENTINE LIQUID DOSAGE FORMS” (BIOPHORE INDIA PHARMACEUTICALS PVT. LTD., priority 2022, published 2026):
Counter-ions that a name gives are not always drawn.

Legend:
[1] = crystalline powder; cited from earlier work
[2] = Selection of sweeteners and flavoring agents (formulation trials); conditions: used as sweetener in trientine tetrahydrochloride oral solution

Row | SMILES | hygroscopicity [1] | compatibility of the sweetener in the formulation [2]
1 | NCCNCCNCCN [Trientine dihydrochloride salt, Trientine dihydrochloride] | hygroscopic | –
2 | Cl.Cl.Cl.Cl.NCCNCCNCCN [Trientine tetrahydrochloride salt, Trientine tetrahydrochloride] | not hygroscopic | –
3 | O=C1NS(=O)(=O)c2ccccc21.[Na] [saccharin sodium] | – | incompatibility in the form of milky white curdling
